From PubChem BioAssay AID1845196 (Molecular Pharmacology Branch, DTP, NCI, 2023)

Test system: 292921-168-R tumor spheroid viability
Assay: Anticancer human tumor 292921-168-R patient-derived pancreatic carcinoma cell line growth inhibition
Conditions: spheroids with HUVEC and MSC; for IC50: curve of first compound; for viability, T/C: stronger effect = lower value
Outline: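 Complex tumor spheroids combined malignant cells with endothelial cells and mesenchymal stem cells. DNA-damaging drugs and DNA repair inhibitors were tested alone and in combination, at half-log dilutions down from clinical Cmax (top 10 microM if Cmax unknown), 0.25% DMSO final.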

[1] = second compound 30 pM, first compound 0.0316 µM
[2] = second compound 30 pM, first compound 0.1 µM
[3] = second compound 30 pM, first compound 0.316 µM
[4] = second compound 30 pM, first compound 1 µM
[5] = second compound 30 pM, first compound 3.16 µM
[6] = second compound 30 pM, first compound 10 µM
[7] = second compound 94.9 pM, first compound 0.0316 µM
[8] = second compound 94.9 pM, first compound 0.1 µM
[9] = second compound 94.9 pM, first compound 0.316 µM
[10] = second compound 94.9 pM, first compound 1 µM
[11] = second compound 94.9 pM, first compound 3.16 µM
[12] = second compound 94.9 pM, first compound 10 µM
[13] = second compound 0.0003 µM, first compound 0.0316 µM
[14] = second compound 0.0003 µM, first compound 0.1 µM
[15] = second compound 0.0003 µM, first compound 0.316 µM
[16] = second compound 0.0003 µM, first compound 1 µM
[17] = second compound 0.0003 µM, first compound 3.16 µM
[18] = second compound 0.0003 µM, first compound 10 µM
[19] = second compound 0.000949 µM, first compound 0.0316 µM
[20] = second compound 0.000949 µM, first compound 0.1 µM
[21] = second compound 0.000949 µM, first compound 0.316 µM
[22] = second compound 0.000949 µM, first compound 1 µM
[23] = second compound 0.000949 µM, first compound 3.16 µM
[24] = second compound 0.000949 µM, first compound 10 µM
[25] = second compound 0.003 µM, first compound 0.0316 µM
[26] = second compound 0.003 µM, first compound 0.1 µM
[27] = second compound 0.003 µM, first compound 0.316 µM
[28] = second compound 0.003 µM, first compound 1 µM
[29] = second compound 0.003 µM, first compound 3.16 µM
[30] = second compound 0.003 µM, first compound 10 µM
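Also: spheroids exposed to compounds for 7 days.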

| Compound | IC50 (second compound 30 pM) [nM] | IC50 (second compound 94.9 pM) [nM] | IC50 (second compound 0.0003 µM) [nM] | IC50 (second compound 0.000949 µM) [nM] | IC50 (second compound 0.003 µM) [nM] | viability, T/C [1] [%] | viability, T/C [2] [%] | viability, T/C [3] [%] | viability, T/C [4] [%] | viability, T/C [5] [%] | viability, T/C [6] [%] | viability, T/C [7] [%] | viability, T/C [8] [%] | viability, T/C [9] [%] | viability, T/C [10] [%] | viability, T/C [11] [%] | viability, T/C [12] [%] | viability, T/C [13] [%] | viability, T/C [14] [%] | viability, T/C [15] [%] | further results |
| --- | --- | --- | --- | --- | --- | --- | --- | --- | --- | --- | --- | --- | --- | --- | --- | --- | --- | --- | --- | --- | --- |
| CC1COCCN1c1cc(-c2ccnn2C)c2ccnc(-c3ccn[nH]3)c2n1 (stereo not given) + COc1cc2c(cc1O)CCNC21CSC2c3c(OC(C)=O)c(C)c4c(c3C(COC1=O)N1C(O)C3Cc5cc(C)c(OC)c(O)c5C(C21)N3C)OCO4 | < 31.6 | < 31.6 | < 31.6 | < 31.6 | < 31.6 | 17.2 | 10.9 | 10.4 | 13 | 14.3 | 16.4 | 10.2 | 7.28 | 8.41 | 11.8 | 13.9 | 16.9 | 4.54 | 4.77 | 5.09 | viability, T/C [16]: 8.72%; viability, T/C [17]: 10.4%; viability, T/C [18]: 12.7%; viability, T/C [19]: 1.76%; viability, T/C [20]: 1.36%; viability, T/C [21]: 2.19%; viability, T/C [22]: 2.16%; viability, T/C [23]: 1.68%; viability, T/C [24]: 2.07%; viability, T/C [25]: 0.19%; viability, T/C [26]: 0.16%; viability, T/C [27]: 0.17%; viability, T/C [28]: 0.16%; viability, T/C [29]: 0.16%; viability, T/C [30]: 0.37% |
| COc1cc(C)[nH]c(=O)c1CN1CCc2c(Cl)cc(C(OC)C3COC3)c(Cl)c2C1=O (stereo not given) + COc1cc2c(cc1O)CCNC21CSC2c3c(OC(C)=O)c(C)c4c(c3C(COC1=O)N1C(O)C3Cc5cc(C)c(OC)c(O)c5C(C21)N3C)OCO4 | > 10000 | > 10000 | 3680 | < 31.6 | < 31.6 | 117 | 116 | 110 | 114 | 110 | 92.4 | 117 | 101 | 117 | 112 | 94.8 | 97.3 | 49.4 | 53.3 | 54.1 | viability, T/C [16]: 58.3%; viability, T/C [17]: 51.2%; viability, T/C [18]: 36.5%; viability, T/C [19]: 6.67%; viability, T/C [20]: 3.7%; viability, T/C [21]: 4.01%; viability, T/C [22]: 3.27%; viability, T/C [23]: 2.1%; viability, T/C [24]: 1.64%; viability, T/C [25]: 0.15%; viability, T/C [26]: 0.14%; viability, T/C [27]: 0.13%; viability, T/C [28]: 0.14%; viability, T/C [29]: 0.2%; viability, T/C [30]: 0.26% |
| Cc1cc(C)c(CNC(=O)c2cc(-c3ccc(CN4CCOCC4)cc3)cc3c2cnn3C2CCCC2)c(=O)[nH]1 + COc1cc2c(cc1O)CCNC21CSC2c3c(OC(C)=O)c(C)c4c(c3C(COC1=O)N1C(O)C3Cc5cc(C)c(OC)c(O)c5C(C21)N3C)OCO4 | > 10000 | > 10000 | 629 | < 31.6 | < 31.6 | 99.1 | 113 | 110 | 109 | 101 | 84.2 | 97.7 | 107 | 108 | 102 | 101 | 78 | 50 | 55.4 | 47.4 | viability, T/C [16]: 49%; viability, T/C [17]: 48%; viability, T/C [18]: 40.5%; viability, T/C [19]: 5.06%; viability, T/C [20]: 5.13%; viability, T/C [21]: 5.06%; viability, T/C [22]: 3.5%; viability, T/C [23]: 3.21%; viability, T/C [24]: 4.34%; viability, T/C [25]: 0.15%; viability, T/C [26]: 0.18%; viability, T/C [27]: 0.17%; viability, T/C [28]: 0.15%; viability, T/C [29]: 0.17%; viability, T/C [30]: 0.23% |
| [2H]c1nc(C)nc([2H])c1-c1cc(NC[C@@H](C)c2cccc3c(C(=O)NC)ccnc23)ncn1 + COc1cc2c(cc1O)CCNC21CSC2c3c(OC(C)=O)c(C)c4c(c3C(COC1=O)N1C(O)C3Cc5cc(C)c(OC)c(O)c5C(C21)N3C)OCO4 | > 10000 | > 10000 | < 31.6 | < 31.6 | < 31.6 | 108 | 99.4 | 99.7 | 117 | 105 | 103 | 99.2 | 102 | 104 | 106 | 101 | 99.8 | 37.5 | 58.4 | 52.1 | viability, T/C [16]: 48.2%; viability, T/C [17]: 46%; viability, T/C [18]: 41%; viability, T/C [19]: 4.08%; viability, T/C [20]: 3.23%; viability, T/C [21]: 4.22%; viability, T/C [22]: 2.93%; viability, T/C [23]: 3.26%; viability, T/C [24]: 2.21%; viability, T/C [25]: 0.18%; viability, T/C [26]: 0.19%; viability, T/C [27]: 0.19%; viability, T/C [28]: 0.18%; viability, T/C [29]: 0.19%; viability, T/C [30]: 0.34% |
